Measurements reported in patent US8652439B2, “Compositions of HSP60 peptides and viral antigens for vaccination and diagnosis” (priority 2005, dated 2014).
Entries after “also recorded” stand apart in the source; their conditions may differ.

Experiments:
MCMV [1] = assay: Immunization after MCMV challenge in combination with Gancyclovir; MCMV-DNA PCR in salivary glands; assay type: in vivo, BALB/c mice; conditions: day 30 after challenge; GCV i.p. with or without one immunization on day 6
Method: DNA was extracted from naïve and infected spleens and salivary gland using QiAmp Tissue Kit (QIAGEN Inc. Chatsworth, Calif., USA), according to appropriate QiAmp protocols. DNA oligonucleotide primers were synthesized according to the published sequence of MCMV gB gene (Rapp et al., 1992). […]. This gB gene primer pair amplifying a 356 bp segment was found the most sensitive in previous studies (Palmon et al., 1996). For gene amplification, 1 μg of DNA sample was added to the reaction mixture containing 200 μM each dNTP, 100 pmol each primer, 1.0 mM MgSO4, 10 mM KCl, 10 mM (NH4)2SO4, 20 mM Tris-HCl (pH 8.8), 0.1% Triton X-100 and 2 U of vent polymerase (Biolabs) in a total reaction volume of 50 μl each. Samples were amplified for 30 cycles in an automated thermal cycler (Perkin Elmer Cetus, USA). Each cycle entailed denaturation at 94° C. for 60 sec, annealing at 68° C. for 90 sec and primer extension at 72° C. for 120 sec. PCR products were electrophoretically separated on 1.5% agarose gel, stained with ethidium bromide, and photographed. The lower limit of detection for this method under the experimental conditions was 5 femtograms of viral DNA corresponding to about 20 copies of the MCMV genome (Palmon et al., 1996).
3-week old BALB/c mice were challenged i.p. with 5×10^4 pfu of MCMV (day 0). On day 6, mice were immunized once with IFA alone, 89pep or p458-89pep emulsified in IFA, as described above. Mice were treated with 100 μg of the anti viral medication Gancyclovir (GCV, Roche, Basel, Switzerland) i.p. on days 1, 2, 3, 4, 8, 9, 10 and 11 after challenge. Mice were sacrificed on day 30 after challenge and MCMV-DNA was measured by a PCR assay in the salivary glands, as specified above (FIG. 14A).

MCMV [2] = assay: Infectious MCMV titers in salivary gland of immunized mice after MCMV challenge (plaque assay); assay type: in vivo, BALB/c mice; conditions: for Infectious MCMV titer in salivary gland: immunized twice, peptides in IFA
[3] = system: salivary gland mononuclear cells; assay: IFNγ-positive salivary gland mononuclear cells 28 days after MCMV challenge of vaccinated mice; assay type: in vivo, BALB/c mice; conditions: 28 days after virus challenge of immunized mice; 8 hr 89pep stimulation
splenocytes = assay: Proliferation of splenocytes from mice immunized with p15 conjugates, stimulated in vitro with p15; assay type: in vivo; conditions: spleens 10 days after immunization; p15 25 μg/ml, 3 days
Method: (§1) Mice were immunized with the following peptides as described in Example 8 using the following peptides: p15 (SEQ ID NO:11), p32 (SEQ ID NO:13), Ec27-p15 ([…], SEQ ID NO:77), and Mock-p15 ([…], SEQ ID NO:80—the p431 peptide fused to p15).
(§2) Spleens were harvested 10 days after the immunization and splenocytes were cultured with p15 (25 μg/ml) for 3 days. Cell proliferation and IFNγ levels in the supernatants of spleen cell cultures were measured. Results are the average of 3 independent proliferation experiments. Ec27-Ep15* and Ec27-Ep15** are two identical but independent groups in the same experiment.

IFN-γ = IFN-γ secretion of splenocytes from mice immunized with p15 conjugates, stimulated in vitro with p15; assay type: in vivo; conditions: spleens 10 days after immunization; p15 25 μg/ml, 3 days
Method: as §1, §2

IL-4 = IL-4 ELISA of spleen cell cultures after vaccination; assay type: in vivo, BALB/c mice; conditions: spleen cell cultures of immunized mice
WNV = assay: Protective efficacy of immunization against WNV challenge (mortality); assay type: in vivo, BALB/c mice; conditions: 3 immunizations; 10^6 pfu WNV; 21 days post challenge; 5 experiments
IFNγ = IFNγ ELISA of spleen and salivary gland cell cultures after vaccination; assay type: in vivo, BALB/c mice; conditions: 10 days after single immunization; for IFNγ secretion of spleen cells stimulated in vitro with p458: 3 d stimulation with p458
[4] = system: P815 cells pulsed with the 89pep; assay: Cytotoxic T cell assay of spleen cell cultures after vaccination; assay type: in vivo, BALB/c mice; conditions: spleens 7 d after one immunization, 6 days re-stimulation with 89pep; P815 loaded with 89pep
Method: The cytotoxic activity against the MCMV 89pep was assessed in a 4-h cytotoxic assay using the CytoTox 96 non-radioactive, colorimetric-based kit (Promega, Madison, Wis.), according to manufacturer instructions. This assay is based on the quantitative measurement of lactate dehydrogenase, a stable cytosolic enzyme that is released upon cell lysis. Spleen cell suspensions from immunized mice, prepared as described above, were re-stimulated in vitro for 6 days with 89pep (10 μg/ml) and rhIL-2 (25 IU/ml) from day 2. Target cells for the lysis assay were P815 cells (mastocytoma, H-2^d). P815 were either non-pulsed or pulsed with 89pep (1 μg/ml) for 2 h and then washed before incubation with effector cells. In all experiments shown, the spontaneous release was less than 25% of maximal release. Each point in a lysis assay represents the average of triplicate values. The range of the triplicates was within 5% of their mean.
We also investigated whether the CD8^+IFNγ^+ cells induced by the p458-89pep were able to lyse specifically 89pep-loaded target cells. Mice were immunized once and 7 d later, spleens were harvested and re-stimulated with 89pep. Six days later, lytic activity was assayed on P815 (H-2^d) loaded with the 89pep. […]

MCMV gB DNA = assay: PCR of MCMV gB DNA in salivary glands of immunized, MCMV-challenged mice; assay type: in vivo, BALB/c mice; conditions: day 28 after MCMV challenge
[5] = system: IFNγ-positive spleen cells; assay: FACS intracellular IFNγ staining of spleen cells after vaccination; assay type: in vivo, BALB/c mice; conditions: 7 days after one immunization; 5 days re-stimulation with 89pep
Method: For phenotypic analysis, spleen and salivary gland mononuclear cells of MCMV-infected and naïve mice were cultured as described above and were stained for CD8 and CD4, IFNγ and IL-5 using directly-labeled antibodies (PharMingen, San Diego, Calif.). Intracellular cell staining (ICCS) for IFNγ, IL-4 and IL-5 was performed using PharMingen's Cytofix/Cytoperm Plus kit with GolgiPlug (containing Brefeldin A) according to the manufacturer's instructions. Briefly, GolgiPlug was added to the 8 h-incubated immune cell cultures (established as described above, with or w/o peptide stimulation). After the additional 6 h of incubation in the incubator cells (minimum 10^6 per sample) were harvested, washed in PBS supplemented with 2% FBS and 0.09% Sodium azide, and incubated in 50 μl of FC blocker, labeled with anti-CD4 and anti-CD8 surface markers. Then cells were fixed, permeabilized and treated with anti-IFNγ, anti-IL-4 or anti-IL-5 antibodies for intracellular cytokine detection. Stained cells were immediately analyzed on a FACSCalibur flow cytometer (Becton-Dickinson, Mansfield, Mass.) and 50,000 to 100,000 events/sample were acquired and analyzed with CellQuest software.
We characterized the nature of cells secreting the IFNγ by flow cytometry. Mice were immunized once with the different peptides and an additional group was infected with MCMV. Seven days later, spleens were removed and cell suspensions were cultured for 5 days with or without 89pep. […] Infection with MCMV and re-stimulation with 89pep induced the highest percentage of IFNγ^+CD8^+ T cells (FIG. 5B). Staining was specific to IFNγ since no CD8^+IL-4^+ or CD8^+IL-5^+ cells were observed.

[6] = system: sera from WNV-exposed human subjects; assay: ELISA recognition of WNV peptides by human sera; assay type: binding; conditions: ELISA, peptide as antigen
Method: Sera from WNV-exposed and non-exposed human subjects was assayed for antibodies recognizing the novel WNV peptide antigens, p15 (SEQ ID NO:11) and p17 (SEQ ID NO:21). FIG. 17 presents the results of an ELISA test in which the p15 and p17 served as the antigen, human sera were used as the primary antibody and HRP-conjugated anti-human Abs were used as the secondary antibody. RLU are the relative luminescence units produced by HRP activity on the luminal substrate.
Sera S2 and S6 are from human that were not infected with WNV while sera S1, S3-S5 and S7 are from human that had history of WNV infection.

Nc1nc(O)c2ncn(COC(CO)CO)c2n1 [GCV, Gancyclovir]
CMV load at the salivary gland (MCMV-DNA PCR) (MCMV [1]): did not suffice for therapy

EGDEATGANI-KVALEAYPHFHPTNL (EGDEATGANIKVALEAYPHFHPTNL) [control-89pep]
Effect of immunization on salivary gland viral load (MCMV [2]; day 28 after MCMV challenge): did not affect the viral load

FNNFTVSFWLRVPKVSASHLEYPHFMPTNL [TTp30-89pep]
Effect of immunization on salivary gland viral load (MCMV [2]; day 28 after MCMV challenge): reduced viral load on day 28 by two fold; also recorded: failed to eliminate infectious virus on day 28; also recorded: contained infectious virus on day 28 post challenge
Effect of immunization on salivary gland viral load (MCMV [2]; days 14 and 21 after MCMV challenge): did not affect viral load on days 14 and 21
CD8+IFNγ+ cells in salivary gland [3]: CD8^+IFNγ^+ cells were observed

KKARVEDALHATRAAVEEGVLVTVNPFVSVATANS [Ec27-p15]
Proliferation of spleen cells in the presence of p15 (splenocytes): more effective than p15 alone
IFN-γ secretion of spleen cells in the presence of p15 (IFN-γ): more effective than p15 alone

NEDQKIGIEIIKRALKI [p458]
IL-4 levels after Con-A stimulation in vitro (IL-4): 184 pg/mL
Mortality (% deaths) (WNV): (57%)
Mortality (dead of total) (WNV): 4/7
IFNγ secretion of spleen cells stimulated in vitro with p458 (IFNγ): high levels of IFNγ

NEDQKIGIEIIKRALKIYPHFHPTNL [p458-89pep]
89pep-specific lytic (CTL) activity [4]: lysed the target cells
MCMV gB PCR product in salivary glands (MCMV gB DNA): failed to reveal any gB PCR product
IL-4 levels after Con-A stimulation in vitro (IL-4): 317 pg/mL
IFNγ+CD4+ T cells in spleen cell cultures [5]: no IFNγ^+CD4^+ T cells
IFNγ+CD8+ T cells in spleen cell cultures [5]: induced IFNγ^+CD8^+ T cells
Effect of immunization on salivary gland viral load (MCMV [2]; day 28 after MCMV challenge): showed no infectious MCMV in the salivary gland
Infectious MCMV titer in salivary gland (MCMV [2]; day 28 after MCMV challenge): < 2 log10 pfu/0.1 g
CMV load at the salivary gland (MCMV-DNA PCR) (MCMV [1]): reduced viral load to undetectable levels
CD8+IFNγ+ cells in salivary gland [3]: larger than that of the other groups
IFNγ secretion of spleen cells stimulated in vitro with p458 (IFNγ): high levels of IFNγ
IFNγ secretion of spleen cells re-stimulated in vitro with 89pep (IFNγ; 3 d stimulation, 89pep 10 μg/ml): significantly higher (p<0.05) levels of IFNγ

YIVVGRGEQQINHHWHK [p17]
Recognition by sera of WNV-exposed and unexposed human subjects [6]: specifically recognized by WNV-exposed sera and not by sera from unexposed subjects

YPHFHPTNL [89pep]
89pep-specific lytic (CTL) activity [4]: No lytic activity was observed
IL-4 levels after Con-A stimulation in vitro (IL-4): 146 pg/mL
IFNγ+CD8+ T cells in spleen cell cultures [5]: very few IFNγ^+CD8^+ T cells
Effect of immunization on salivary gland viral load (MCMV [2]; day 28 after MCMV challenge): marginal advantage compared to IFA-immunized mice; also recorded: contained infectious virus on day 28 post challenge
Infectious MCMV titer in salivary gland (MCMV [2]; day 28 after MCMV challenge): 4.5 log10 pfu/0.1 g
CMV load at the salivary gland (MCMV-DNA PCR) (MCMV [1]): did not affect CMV load
CD8+IFNγ+ cells in salivary gland [3]: CD8^+IFNγ^+ cells were observed
